Assay results published in PMC4226669, “Anti-cancer potency of tasquinimod is enhanced via albumin-binding facilitating increased uptake in the tumor microenvironment” (Oncotarget, 2014).
Read-outs that look alike come from different tables or passages of the source.

Legend:
[1] = Protein binding fraction (PBF) in bovine fetal serum; format: in vitro ADME; conditions: bovine fetal serum (FBS), 1-50 μM radiolabeled tasquinimod
Procedure: An explanation for this highly restricted cellular uptake in the blood is provided by the fact that protein binding fraction (PBF) for tasquinimod in nude mouse plasma is 98 ± 1%. This is not a nude mouse specific effect since incubation of 1-50 μM radiolabeled tasquinimod with human plasma or bovine fetal serum (FBS) results in a PBF of ~ 98%.
Mice were orally gavaged with ^14C-labeled tasquinimod at a dose of 5mg/kg and 1 hour later blood collected and plasma isolated and the PBF determined as described previously using Centrifree® YM-30 centrifuge filter unit with a molecular weight cutoff of 30K (i.e., Millipore, Billerica,MO).

[2] = Nadir plasma concentration after 5 days oral dosing in C57Bl/6J mice; format: in vivo, mouse; conditions: 5 mg/kg/day oral gavage, end of 5 days
Procedure: To determine whether this chronic 5 mg/kg/day oral dosing regimen produces similar blood concentrations in mice as obtained in human trials, intact adult male C57Bl/6J mice (n=4) were given ^14C- radiolabeled tasquinimod via oral gavage and then the plasma concentration of drug at the end of 5 days determined based upon radioactivity levels.

[3] = Tissue distribution and metabolites in nude mice bearing CWR-22Rv1 cancers; format: in vivo, mouse; conditions: for concentration at 4 h: male, nude, mouse
Procedure: To determine the concentration of metabolites, nude mice bearing CWR-22Rv1 prostate cancers were orally administered with 5 mg/kg of ^14C- radiolabeled tasquinimod and 4 and 24 hours later, blood plasma and liver, kidney, and cancer tissue harvested and analyzed for determination of metabolites. […] The predominant metabolite is the O-demethylated quinoline compound, Figure 2A&B, but the concentration of the hydroxylated aromatic quinoline and the N-demethylated quinoline compounds, along with the O-demethylated quinoline compound are also higher in the liver than the blood at the time point studied, Figure 2B. Also in the kidney 40% of the drug is present as metabolites, with the concentration of the hydroxylated aromatic quinoline and the O-demethylated quinoline compounds being higher than in the blood, Figure 2B. In contrast, within the cancer > 80% of the total concentration of drug is present as parent tasquinimod, Figure 2B. Only the O-demethylated quinoline compound is present at a higher concentration in the cancer than blood, Figure 2B. The plasma concentration of total metabolites is < 10% at 4 hours, Figure 2B, and 24 hours post oral dosing with 5 mg/kg, Figure 2A.
Male nude mice bearing 200-300mm^3 CWR-22Rv1 cancers were given ^14C-labeled tasquinimod at a dose of 5 mg/kg via oral gavage. At times ranging from 30 min to 24 hour, groups of 4-6 mice were anaesthetized with ketamine and 1 ml of heparinized blood collected by cardiac puncture, followed by subsequent cardiac perfusion of saline to remove blood associated drug. An aliquot of liver, kidney, and cancer was removed, weighed and then homogenized. The radioactivity in 10 μL aliquots of tissue homogenates and blood plasma was determined using a liquid scintillation counter and used to calculate the total amount of tasquinimod plus its metabolites per gram of tissue or per ml of blood. The remaining sample volume was deproteinated with acetonitrile and the radioactivity of an aliquot of the supernatant determined and the remaining supernatant lyophilized, resuspended initially with 0.1mL dimethyl sulfoxide and diluted by the addition of 0.9mL deionized water prior to injection into the HPLC. The HPLC system consisted of Waters pumps using a Waters gradient controller to deliver mobile phase at a flow rate of 1mL per minute using a Supelcosil ABZ+ C18 column that is 150mm long by 4.6mm diameter and has 5μm particle size. The metabolites were separated using a linear gradient in which the starting mobile phase was 35% acetonitrile: 65% water: 0.1% Trifluoroacetic acid (TFA) increasing to 50% acetonitrile: 50% water: 0.1%TFA over 25 minutes, and then increased rapidly to 98% acetonitrile: 2% water: 0.1%TFA and held until 33 minutes before it is returned to the initial conditions for the next run. Fractions were collected and the radioactivity determined by scintillation counting. As controls, the individual elution time of non-radiolabeled standard solutions of the various tasquinimod metabolites was determined using UV absorption at 215nm. The results were expressed as concentration based upon tissue volume, assuming 1gram wet weight equals 1ml, or normalized to tissue vascular volume.

[4] = tested on: CWR-22Rv1, LAPC-4, LNCaP and HUVEC cells; experiment: Nuclear drug uptake in 3 prostate cancer lines and HUVEC; format: cell-based, human
Text: To determine the total nuclear concentration of drug (Nt), a modified protocol was needed to allow the rapid lyses of cells and rapid isolation of cell nuclei by differential centrifugation. This could not be accomplished using the usual method of detergent lyses because detergents extract bound drug due to its lipophilicity. Therefore, a detergent free protocol using nitrogen cavitation was developed to rapidly lyse cells and allow the rapid isolation of nuclei via differential centrifugation. Using this cavitation protocol, it was documented that within 1 hour, total nuclear drug concentration (Nt) equals that of the protein-free drug concentration in the media (i.e., 0.2 μM), and that after 4 hours equals PMt (i.e., see Figure 3B, right panel for representative results for the CWR-22Rv1 cells). From 8 hours onward, Nt is more than 10 fold higher than the free and 2 fold higher than the total drug concentration in the media, Figure 3B, right panel. For example at 24 hours post exposure to 1 μM tasquinimod in 10% FBS containing media, the Nt is 2.4 ± 0.3 μM, Figure 3B, right panel. At this 24 hours period, total radioactive drug in isolated nuclei from all 3 prostate cancer lines, as well as HUVEC cells (i.e., nuclear concentration in these 4 lines ranged from 2.2-3.1 μM) was extracted with acetonitrile and the extracts analyzed by HPLC. […] To resolve this, nuclear uptake was determined 24 hours post exposure to 1 μM tasquinimod in serum free media. These studies again documented that nuclear tasquinimod concentration in these 4 cell lines ranged from 2.5-3.5 μM documenting that binding to albumin is not required for cell uptake.
To specifically determine the concentration of tasquinimod within the cell nucleus, 10^7 cells were incubated in 1ml of tissue culture media containing 10% fetal bovine serum (FBS) plus 1μM ^14C-labeled tasquinimod for varying times before the cells were centrifuged rapidly (i.e., 1000xG for 2 min) to remove the drug containing media. The cells were rapidly resuspended in phosphate buffered saline and exposed to pressurized (i.e., 500lbs/sq in) N2 in a nitrogen cavitation devise (i.e., Parr bomb, Parr Instrument Company, Moline, Il) for 5 min before the plasma membranes were lysed by the rapid release of the pressure. This detergent free procedure lyses >98% of the cells without disrupting either mitochondria or lysosomes. […] The radioactivity of this pellet was counted and used to calculate the total amount of tasquinimod associated with 10^7 cell nuclei. To determine the nuclear drug concentration, this total nuclear drug amount was […] the total volume of 10^7 cell nuclei determined from the average diameter of the nuclei determined electronically using Cellometer AutoT4.

fraction unbound [1]: ~0.02 | nadir plasma concentration [2]: 1.08 ± 0.21 µM | prostate cancer tissue concentration relative to liver or kidney, normalized to percent vascular volume ([3]; 5 mg/kg oral): 3-5 fold | time to maximum total drug concentration in liver, kidney and cancer ([3]; 5 mg/kg oral, CWR-22Rv1 tumor bearing mice): ≤ 5 h | total drug within the cancer present as parent tasquinimod ([3]; CWR-22Rv1 cancer, 4 hours post 5 mg/kg oral): > 80% | percentage of total drug in CWR-22Rv1 cancer ([3]; CWR-22Rv1 cancer, 4 hours post oral 5mg/kg tasquinimod): 83+/-6% | percentage of total drug in kidney ([3]; kidney, 4 hours post oral 5mg/kg tasquinimod): 60+/-7% | percentage of total drug in liver ([3]; liver, 4 hours post oral 5mg/kg tasquinimod): 29+/-5% | concentration at 4 h ([3]; CWR-22Rv1 cancer tissue, CWR-22Rv1 cancer, 4 hours post oral 5mg/kg tasquinimod, 1gm tissue = 1ml, read-out: concentration in CWR-22Rv1 cancer): 2.24 µM | concentration at 4 h ([3]; kidney, 4 hours post oral 5mg/kg tasquinimod, 1gm tissue = 1ml, read-out: concentration in kidney): 2.3 µM | concentration at 4 h ([3]; liver, 4 hours post oral 5mg/kg tasquinimod, 1gm tissue = 1ml, read-out: concentration in liver): 3.77 µM | concentration at 4 h ([3]; plasma, 4 hours post oral 5mg/kg tasquinimod, read-out: concentration in plasma): 5.58 µM | percentage of total drug in plasma ([3]; plasma, 4 hours post oral 5mg/kg tasquinimod): 93+/-6% | nuclear concentration, range over 4 lines ([4]; 24 hours, 1 μM in 10% FBS media): 2.2 to 3.1 µM | nuclear tasquinimod concentration, range over 4 cell lines ([4]; 24 hours, 1 μM in serum free media): 2.5 to 3.5 µM | drug present within nuclei that is non-metabolized tasquinimod ([4]; 24 hours, each of 4 cell lines, HPLC): > 95% | intracellular drug concentration ([4]; exposure of cancer and endothelial cells to 0.5-1μM): 2 to 3 µM
SMILES: COc1cccc2c1c(O)c(C(=O)N(C)c1ccc(C(F)(F)F)cc1)c(=O)n2C [Tasquinimod]
